Experimental data published in patent publication US20220257491A1, “Prebiotic Oral Care Compositions and Methods” (Colgate-Palmolive Company, priority 2021, published 2022).
Where “and” joins values, the source holds several entries; their conditions need not be identical. Identical values can stand only once. Marks after values point to notes of the source that are not given here.

Assays:
Type in all cases: cell-based
[1] = tested on: S. gordonii; assay: Multi-species biofilm composition: absolute abundance of S. gordonii; conditions: mean±SD n=3
Method: (§1) Biofilms are grown vertically on Calcium Deficient Hydroxyapatite (CAD-HA) disks (Hitemco Medical, Old Bethpage, USA) using the Amsterdam Active Adhesion model. Biofilms are allowed to establish during 24 h (37° C., 170 rpm) under micro-aerophilic conditions (6% O2, 7% CO2, 7% H2, 80% N2). After this 24 h, disks are rinsed 3 times a day for 3 minutes (RT, 250 rpm), for 3 consecutive days, by transferring the lid containing the disks to a new 24-well plate containing 2 mL/well of the appropriate substrate solution. As a negative control, PBS (pH 5.7) without substrate supplementation is used. After each rinsing step, disks are shortly dip-rinsed in a new 24-well plate containing fresh modified BHI medium (2 mL/well) to remove remaining substrate traces. Subsequently, the lid is transferred to another 24-well plate containing fresh modified BHI medium (2 mL/well), followed by incubation (micro-aerophilic, 37° C., 170 rpm) until the next rinsing step.
(§2) NADM, N-acetyl-D-glucosamine (“NADG”) and D-(+)-mannose are selected to determine their effects on multi-species biofilm composition. Repeated rinsing of the biofilms with the substrates at a concentration of 1M results in a significant decrease in absolute numbers in at least four of the pathogenic bacterial species tested in the assay, compared to the control, the results of which are described in Table 1 below. Absolute abundances of bacterial species are shown as mean±SD (n=3) logarithmic values of the genome equivalents per millilitre (log(Geq/mL)).

[2] = tested on: multi-species biofilm; assay: Relative multi-species biofilm composition (groups of bacterial species)
Method: as §1
(§3) NADM, N-acetyl-D-glucosamine (“NADG”) and D-(+)-mannose are selected to determine their effects on multi-species biofilm composition. […] decrease in absolute numbers in at least four of the pathogenic bacterial species tested in the assay, compared to the control, the results of which are described in Table 1 below. Absolute abundances of bacterial species are shown as mean±SD (n=3) logarithmic values of the genome equivalents per millilitre (log(Geq/mL)).
Relative abundances of the different groups (beneficial/commensals, periodontal pathogens, cariogenic pathogens) of bacterial species are shown as mean±SD (n=3) percentage of the genome equivalents per millilitre (% (Geq/mL)). […] NADM: N-acetyl-D-mannosamine; NADG: N-acetyl-D-glucosamine.

[3] = tested on: A. naeslundii; assay: Multi-species biofilm composition: absolute abundance of A. naeslundii; conditions: mean±SD n=3
Method: as §1, §2

[4] = tested on: multi-species biofilms; assay: Multi-species biofilm organic acid balances (supernatant); conditions: >0 production, <0 consumption, mean±SD n=3
Method: as §1
To examine the effect of NADM and the influence of the orientation and absence/presence of the N-acetyl group on organic acid production and consumption, supernatant samples from substrate-treated or untreated multi-species biofilms are analysed. […] When comparing relevant significant differences between substrate conditions, an increase in acetate production is observed for NADM compared to D-(+)-mannose (3084±174 vs. 1934±56 mg/L).

[5] = tested on: P. gingivalis; assay: Multi-species biofilm composition: absolute abundance of P. gingivalis; conditions: mean±SD n=3
Method: as §1, §3

[6] = tested on: human oral keratinocytes (HOK-18A); assay: Inflammatory mediator gene expression in keratinocytes exposed to substrate-treated biofilms; conditions: relative to control (=1), geometric mean (95% C.I.) n=3
Method: Cultures of immortalized human oral keratinocytes (HOK-18A) are grown. The relative inflammatory potential of the substrate-treated multi-species biofilms is evaluated by analyzing the expression of five inflammatory mediator genes in human oral keratinocytes (HOKs) exposed to the substrate-treated biofilms. […] The IL-8 levels in the cellular supernatant are determined as well. RNA is converted to cDNA and relative expression of inflammatory mediator genes is determined as described above with respect to the cellular housekeeping gene (3-actin.
In HOKs exposed to substrate-treated (substrate concentrations of 1 M) multi-species biofilms, mostly decreases in inflammatory mediator gene expression are observed and measured via SYBR RT-qPCR, the results of which are detailed in Table 6.
All substrates are dissolved in PBS at a concentration of 1 M (upper part) or 1% (w/v) (lower part). Values between 0 and 1 represent relative downregulation, values >1 represent relative upregulation. […] For such values, statistically significant differences between two experimental conditions are marked with ‘#1’ (vs. NADM), ‘#2’ (vs. NADG), ‘#3’ (vs. D-(+)-mannose) (P<0.05).

[7] = tested on: S. salivarius; assay: Multi-species biofilm composition: absolute abundance of S. salivarius; conditions: mean±SD n=3
Method: as §1, §2

[8] = tested on: S. mutans; assay: Multi-species biofilm composition: absolute abundance of S. mutans; conditions: mean±SD n=3
Method: as §1, §2

[9] = tested on: P. intermedia virulence genes; assay: Multi-species biofilm virulence gene expression, SYBR RT-qPCR: P. intermedia; conditions: for Fold Change in virulence gene expression: DnaJ / Fold Change in virulence gene expression: DnaK / Fold Change in virulence gene expression: ECF / Fold Change in virulence gene expression: GroES / Fold Change in virulence gene expression: HtpG / Fold Change in virulence gene expression: KpsD / Fold Change in virulence gene expression: adpc / Fold Change in virulence gene expression: clpB / Fold Change in virulence gene expression: inpA / Fold Change in virulence gene expression: phg: relative to control (=1), 2^-ΔΔCt, geometric mean n=3
Method: as §1
The expression of 33 virulence genes from 4 periodontal pathogens is analysed to evaluate the relative virulence of the substrate-treated biofilms. For all three substrates, virulence gene expression is determined relatively to the control, and these values are also compared between substrates when this is relevant (Tables 5a-5d).

[10] = substrate 1%(w/v) in PBS, mean±SD n=3
[11] = substrate 1 M in PBS, mean±SD n=3
[12] = biofilm rinsed with substrate 1%
[13] = biofilm rinsed with substrate 1M

SMILES: CC(=O)N[C@H]1C(O)O[C@H](CO)[C@@H](O)[C@@H]1O (stereo partly drawn) [NADG, N-acetyl-D-glucosamine, reference compound]
- Absolute abundance S. gord. (S. gordonii) ([1]; substrate 1%(w/v) in PBS): 8.33 ± 0.06 log(Geq/mL)
- Absolute abundance S. gord. (S. gordonii) ([1]; substrate 1 M in PBS): 9.38 ± 0.40 log(Geq/mL)
- Relative abundance Beneficials/Commensals [2, 10]: 60.07 ± 8.25 % (Geq/mL)
- Relative abundance Cariogenic Pathogens [2, 10]: 0.66±0.27 % (Geq/mL)
- Relative abundance Periodontal Pathogens [2, 10]: 39.27 ± 7.98 % (Geq/mL)
- Relative abundance Beneficial or commensals [2, 11]: 97.52±0.82 % (Geq/mL)
- Relative abundance Cariogenic Pathogens [2, 11]: 2.35 ± 0.92 % (Geq/mL)
- Relative abundance Periodontal Pathogens [2, 11]: 0.13±0.10 % (Geq/mL) and 0.13 ± 0.10 *^, #1 % (Geq/mL)
- Decreases in A. actinomycetemcomitans, F. nucleatum, P. gingivalis, P. intermedia and S. sobrinus numbers vs control ([2]; substrate 1 M, range over the species): −1.5 to −2.5 log(Geq/mL)
- Absolute abundance An (A. naeslundii) ([3]; substrate 1%(w/v) in PBS): 7.71 ± 0.12 log(Geq/mL)
- Absolute abundance An (A. naeslundii) ([3]; substrate 1 M in PBS): 6.52 ± 0.20 log(Geq/mL)
- acetate level in biofilm supernatant ([4]; substrate 1%(w/v)): 379 ± 10 mg/L
- butyrate level in biofilm supernatant ([4]; substrate 1%(w/v)): 2238 ± 59 mg/L
- formate level in biofilm supernatant ([4]; substrate 1%(w/v)): 4315 ± 198 mg/L
- lactate level in biofilm supernatant ([4]; substrate 1%(w/v)): 125 ± 0 mg/L
- propionate level in biofilm supernatant ([4]; substrate 1%(w/v)): 2205 ± 89 mg/L
- acetate level in biofilm supernatant ([4]; substrate 1 M): 3815 ± 77 mg/L
- butyrate level in biofilm supernatant ([4]; substrate 1 M): 1255±51 mg/L and 1255 ± 51*^, #1, 3 mg/L
- formate level in biofilm supernatant ([4]; substrate 1 M): 352 ± 18 mg/L
- lactate level in biofilm supernatant ([4]; substrate 1 M): 125 ± 0 mg/L
- propionate level in biofilm supernatant ([4]; substrate 1 M): 2750 ± 40 mg/L
- Absolute abundance Pg (P. gingivalis) ([5]; substrate 1%(w/v) in PBS): 7.14 ± 0.28 log(Geq/mL)
- Absolute abundance Pg (P. gingivalis) ([5]; substrate 1 M in PBS): 4.00 ± 0.39*^, ^#3 log(Geq/mL)
- Fold change in inflammatory mediator gene expression: IL-1β [6, 12]: 0.71 (0.38-1.33) fold
- Fold change in inflammatory mediator gene expression: IL-6 [6, 12]: 0.73 (0.58-0.93) fold
- Fold change in inflammatory mediator gene expression: IL-8 [6, 12]: 1.00 (0.78-1.27) fold
- Fold change in inflammatory mediator gene expression: MMP-8 [6, 12]: 0.52 (0.17-1.60) fold
- Fold change in inflammatory mediator gene expression: TNF-α [6, 12]: 0.71 (0.28-1.35) fold
- Fold change in inflammatory mediator gene expression: IL-1β [6, 13]: 0.75 (0.55-1.02) fold
- Fold change in inflammatory mediator gene expression: IL-6 [6, 13]: 0.57 (0.46-0.71) fold
- Fold change in inflammatory mediator gene expression: IL-8 [6, 13]: 0.14 (0.06-0.36)* fold
- Fold change in inflammatory mediator gene expression: MMP-8 [6, 13]: 1.28 (0.79-2.08) fold
- Fold change in inflammatory mediator gene expression: TNF-α [6, 13]: 0.89 (0.59-1.34) fold
- Absolute abundance S. sal. (S. salivarius) ([7]; substrate 1%(w/v) in PBS): 2.65 ± 0.00 log(Geq/mL)
- Absolute abundance S. sal. (S. salivarius) ([7]; substrate 1 M in PBS): 4.38 ± 1.23 log(Geq/mL)
- Absolute abundance S. mutans ([8]; substrate 1%(w/v) in PBS): 7.83 ± 0.23 log(Geq/mL)
- Absolute abundance S. mutans ([8]; substrate 1 M in PBS): 8.95 ± 0.38 log(Geq/mL)
- Relative P. intermedia virulence gene expression, downregulation ([9]; substrate 1%(w/v), D-(+)-mannose for 3 genes): unaffected
- Fold Change in virulence gene expression: DnaJ ([9]; substrate 1%): 0.7 fold
- Fold Change in virulence gene expression: DnaK ([9]; substrate 1%): 0.77 fold
- Fold Change in virulence gene expression: ECF ([9]; substrate 1%): 0.48 fold
- Fold Change in virulence gene expression: GroES ([9]; substrate 1%): 0.75 fold
- Fold Change in virulence gene expression: HtpG ([9]; substrate 1%): 0.46 fold
- Fold Change in virulence gene expression: KpsD ([9]; substrate 1%): 0.78 fold
- Fold Change in virulence gene expression: adpc ([9]; substrate 1%): 0.67 fold
- Fold Change in virulence gene expression: clpB ([9]; substrate 1%): 1.06 fold
- Fold Change in virulence gene expression: inpA ([9]; substrate 1%): 0.53 fold
- Fold Change in virulence gene expression: phg ([9]; substrate 1%): 0.69 fold
- P. intermedia virulence gene expression, increases ([9]; substrate 1 M, range over genes): 2- to 20.3 fold
- Fold Change in virulence gene expression: DnaJ ([9]; substrate 1M): 0.64 fold
- Fold Change in virulence gene expression: DnaK ([9]; substrate 1M): 2.34 fold
- Fold Change in virulence gene expression: ECF ([9]; substrate 1M): 20.32 fold
- Fold Change in virulence gene expression: GroES ([9]; substrate 1M): 1.86 fold
- Fold Change in virulence gene expression: HtpG ([9]; substrate 1M): 3.40 fold
- Fold Change in virulence gene expression: KpsD ([9]; substrate 1M): 1.72 fold
- Fold Change in virulence gene expression: adpc ([9]; substrate 1M): 2.65 fold
- Fold Change in virulence gene expression: clpB ([9]; substrate 1M): 2.03 fold
- Fold Change in virulence gene expression: inpA ([9]; substrate 1M): 4.52 fold
- Fold Change in virulence gene expression: phg ([9]; substrate 1M): 0.57 fold
